# Values quoted from earlier work as cited in patent publication US20030144259A1, “Breast cancer hormonal therapy” (priority 2000, published 2003).
# Conditions: human, in vivo; cited from earlier work
smiles,measurement,value
CCC1(c2ccc(N)cc2)CCC(=O)NC1=O (stereo not shown) [aminoglutethimide],dizziness,15%
same,lethargy,36%
same,nausea and vomiting,10%
same,patients requiring discontinuation of drug,about 5%
same,patients with side effects,about 35%
same,severe myelosuppression,less than 1%
same,transient maculopapular rash,25%
